Read-outs that look alike come from different tables or passages of the source.
Columns and labels:
[1] = system: 16HBE cells (human epithelial cells of bronchial origin); assay: Cell viability test (MTT reduction);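 also: formazan absorbance at 570 nm after MTT reduction, corrected for cell-free blank wells, reported relative to untreated cells, from duplicate wells over three independent repeats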
Protocol: The cytotoxic potential of the compounds was evaluated on cell cultures in vitro. […] The results are reported in the table as viability (%) compared to untreated cells (Table 4).
To evaluate the cytotoxic potential of the compounds under examination, the MTT (3-(4,5-dimethylthiazol-2-yl)-2,5-diphenyltetrazolium) reduction test, commonly used to monitor cell viability was used following the exposure to potentially cytotoxic agents. The essay is based on the reduction of MTT to formazan, a compound that assumes a blue colour which can be evaluated by spectrophotometric reading at a wavelength of 570 nm. For the essay we used the 16HBE cell line. […] Each test was performed in duplicate and three independent replicas were made.
Cell viability was calculated as follows:
COD570=OD570 of sample−OD570 of wells without cells (white)
Viability=100−reduction (%)
where: NT indicates the samples of cells non-threated with the compounds; T the samples of cells treated with the compounds at the different concentrations.
The mean cell viability values were calculated using the Excel mean and standard deviation functions.

[2] = system: P. aeruginosa PA14 col^R 5 (colistin-resistant strain); assay: Checkerboard assay compound/colistin; assay type: cell-based
Protocol: The checkerboard essays were performed in microtiter plates with 96 wells, aliquoting in each column of wells 50 μl of MH medium containing decreasing concentrations of colistin (dilutions in reason of 2 from 384 to 1.5 μg/ml) or without colistin, and in each row of wells further 50 μl of MH medium containing decreasing concentrations of compound of interest (dilutions in reason 2 from […]) or without compound. Finally, 50 μl of the inoculum of the PA14 col^R 5 strain were added to each well at a concentration of ˜1.5×10^6 cells/ml in MH medium, so as to reach a final volume of 150 μl, a bacteria concentration equal to […], colistin concentrations in the range 0-128 μg/ml and concentrations of compounds of interest in the range 0-125 μM. Plates were incubated at 37° C. without shaking for 24 hours, and bacterial growth was assessed by measuring the A600 in a microplate reader (Victor 2^V, Perkin-Elmer). Three independent experiments were conducted for each compound, and the averages of the values obtained in the three experiments were considered to determine the IC90 values.

[3] = system: colistin-resistant clinical strains of Klebsiella pneumoniae; assay: MIC of colistin in presence of BBN149 or DMSO, K. pneumoniae clinical strains; assay type: cell-based
Protocol: (§1) All the colistin-resistant strains used depend on the aminoarabinosylation of lipid A as a mechanism of resistance to colistin (Lo Sciuto e Imperi, 2018; Esposito et al., 2018). […] MIC essays were performed in 96-well microtitration plates, using previously characterized P. aeruginosa and K. pneumoniae strains (Lo Sciuto e Imperi, 2018; Esposito et al., 2018). […] At least three independent experiments were conducted for each strain.

[4] = system: P. aeruginosa PA14 col^R 5 (colistin-resistant strain); assay: microbe, parasite or virus in culture; assay type: cell-based; settings: for IC90: read-out: IC90, synergy with colistin (8 μg/ml)
Protocol: The compounds identified by in silico screening were tested for their antibacterial activity (in the absence of colistin) and for their synergistic or adjuvant activity with colistin against a colistin-resistant strain of P. aeruginosa grown in the absence or presence of a sub-inhibitory concentration of colistin (8 μg/ml).
This strain over-expresses the am genes responsible for the modification of lipopolysaccharide by the addition of L-amino-arabinose.
The strain was grown in Mueller-Hinton (MH) medium for 8 hours, and inoculated at a cell density of ˜10^6/ml in MH medium supplemented or not with colistin at a concentration of 16 μg/ml. […] The microtitration plates were incubated at 37° C. without stirring for 24 hours. Bacterial growth was assessed by measuring absorbance at 600 nm (A600) in a microplate reader (Victor 2^V, Perkin-Elmer). […] For each compound three independent experiments were conducted, and the averages of the values obtained in the three experiments are considered to determine the values of IC50 e IC90.

[5] = system: P. aeruginosa strains resistant and sensitive to colistin; assay: MIC of colistin in presence of BBN149 or DMSO, P. aeruginosa strains; assay type: cell-based
Protocol: as §1

[6] = 16HBE, 1.95 μM, 18 hours, MTT, vs untreated cells
[7] = 16HBE, 3.91 μM, 18 hours, MTT, vs untreated cells
[8] = 16HBE, 7.81 μM, 18 hours, MTT, vs untreated cells
[9] = 16HBE, 15.63 μM, 18 hours, MTT, vs untreated cells
[10] = 16HBE, 62.5 μM, 18 hours, MTT, vs untreated cells
[11] = 16HBE, 125 μM, 18 hours, MTT, vs untreated cells
[12] = 16HBE, 250 μM, 18 hours, MTT, vs untreated cells
[13] = Pseudomonas aeruginosa, PA14, 24 h, read-out: IC50 without colistin

With `C[C@]12C=C[C@@]3(CC[C@@H]4[C@@](C)(COC(=O)C(=O)O)CCC[C@@]4(C)[C@@H]3CC1)C2` [BBN149, ent-beyer-15-en-18-O-oxalic acid] the “Average percentage of cell viability (±standard deviation)” value [1] was 86.07 ± 5.30%, the “Average percentage of cell viability (±standard deviation)” value [1, 6] was 94.15 ± 6.34% and the “Average percentage of cell viability (±standard deviation)” value [1, 7] was 90.17 ± 7.35%. For the same compound, the “Average percentage of cell viability (±standard deviation)” value [1, 8] was 86.13 ± 2.37%, the “Average percentage of cell viability (±standard deviation)” value [1, 9] was 90.80 ± 6.31% and the “Average percentage of cell viability (±standard deviation)” value [1, 10] was 76.33 ± 2.65%. The “Average percentage of cell viability (±standard deviation)” value [1, 11] was 71.99 ± 5.18%, the “Average percentage of cell viability (±standard deviation)” value [1, 12] was 65.51 ± 4.05% and the “reduction of MIC of colistin (times)” value [2] was 4 times. The “concentration of compound reducing MIC of colistin by 4 times” value ([2]; MIC of colistin 64 to 16 μg/ml, PA14 col^R 5) was at least 16 µM, the “reduction of MIC of colistin (times)” value ([2]; compound ≥31 μM, MIC 64 to 8 μg/ml, PA14 col^R 5) was 8 times and the “MIC of colistin in the presence of 60 μM BBN149” value (“MIC … of 60 μM BBN149” below) ([3]; strain KP-Mo-3) was 16 µg/mL. The “MIC … of 60 μM BBN149” value ([3]; strain KP-Mo-5) was 8 µg/mL, the “MIC … of 60 μM BBN149” value ([3]; strain KP-Mo-6) was 4 µg/mL and the “MIC … of 60 μM BBN149” value ([3]; strain KP-Mo-11) was 8 µg/mL. For the same compound, the “MIC … of 60 μM BBN149” value ([3]; strain KP-Mo-16) was 8 µg/mL, the IC50 ([4]; Pseudomonas aeruginosa, PA14, 24 h, read-out: IC50, synergy with colistin (8 μg/ml)) was 15.6 µM and the IC50 [4, 13] was over 250 µM. The IC90 ([4]; Pseudomonas aeruginosa, PA14, 24 h) was 31.2 µM, the “inhibition of bacterial growth in the presence of colistin” value ([4]; colistin 8 μg/ml) was “able to inhibit bacterial growth in the presence of colistin” and the “antibacterial activity per se” value ([4]; in the absence of colistin) was “none of the compounds showed antibacterial activity per se”. For the same compound, the “activity on colistin-sensitive strains” value ([5]; 60 μM BBN149, colistin-sensitive P. aeruginosa strains) was “no relevant activity”, the “MIC … of 60 μM BBN149” value ([5]; strain KK1) was 1 µg/mL and the “MIC … of 60 μM BBN149” value ([5]; strain KK1 col^R 1) was 8 µg/mL. For the same compound, the “MIC … of 60 μM BBN149” value ([5]; strain KK27) was 1 µg/mL, the “MIC … of 60 μM BBN149” value ([5]; strain KK27 col^R 6) was 4 µg/mL and the “MIC … of 60 μM BBN149” value ([5]; strain PA14) was 1 µg/mL. For the same compound, the “MIC … of 60 μM BBN149” value ([5]; strain PA14 col^R 5) was 8 µg/mL, the “MIC … of 60 μM BBN149” value ([5]; strain TR1) was 1 µg/mL and the “MIC … of 60 μM BBN149” value ([5]; strain TR1 col^R 6) was 4 µg/mL.

With `C[C@@]12CCC3[C@@](CCC4[C@@]3(C)CCC[C@@]4(C)C(=O)OC3OC(CO)C(O)C(O)C3O)(CC1)C2` (stereo partly drawn) [SR4, glucopyranosyl β-D ester of ent-beyeran-19-oic acid] the “Average percentage of cell viability (±standard deviation)” value [1, 6] was 96.35 ± 9.42%, the “Average percentage of cell viability (±standard deviation)” value [1, 7] was 92.31 ± 3.26% and the “Average percentage of cell viability (±standard deviation)” value [1, 8] was 92.44 ± 2.11%. For the same compound, the “Average percentage of cell viability (±standard deviation)” value [1, 9] was 97.27 ± 5.61%, the “Average percentage of cell viability (±standard deviation)” value ([1]; 16HBE, 31.25 μM, 18 hours, MTT, vs untreated cells) was 101.69 ± 4.39% and the “Average percentage of cell viability (±standard deviation)” value [1, 10] was 99.27 ± 2.43%. For the same compound, the “Average percentage of cell viability (±standard deviation)” value [1, 11] was 106.23 ± 5.52%, the “Average percentage of cell viability (±standard deviation)” value [1, 12] was −1.11 ± 2.02% and the “reduction in cell viability” value ([1]; 16HBE, highest concentration (250 μM), 18 hours) was “total reduction of cell viability”. For the same compound, the “concentration of compound reducing MIC of colistin by 4 times” value [2] was 125 µM, the “reduction of MIC of colistin (times)” value ([2]; compound 125 μM only, PA14 col^R 5) was 4 times and the IC50 [4, 13] was over 250 µM. The IC90 ([4]; PA14 ColR5, colistin 8 μg/ml (sub-inhibitory), minimum concentration causing at least 90% growth inhibition, 24 h) was over 250 µM and the melting point was 160 °C.

Reference: patent publication US20220259249A1, “INHIBITORS OF ANTIBIOTIC RESISTANCE MEDIATED BY ARNT” (priority 2019, published 2022)
